Source: patent publication US9499493B2, “2,4-pyrimidinediamine compounds and their uses” (Rigel Pharmaceuticals, Inc., priority 2002, dated 2016)
Where a name gives a salt, the structure may show the parent alone.

tested on: cultured human mast cells (CHMC); test: CHMC low cell density ionomycin activation: tryptase assay; format: cell-based; conditions: not given

Row | Compound | IC50 [µM]
1 | CNC(=O)COc1cccc(Nc2ncc(F)c(Nc3ccc4c(c3)OCCO4)n2)c1 [R926816, N4-(3,4-Ethylenedioxyphenyl)-5-fluoro-N2-[3-(N-methylamino)carbonylmethyleneoxyphenyl]-2,4-pyrimidinediamine Hydrogen Chloride Salt] | > 10
2 | O=C(COc1cccc(Nc2ncc(F)c(Nc3ccc4c(c3)OCCO4)n2)c1)N1CCNCC1 [R926504, N4-(3,4-Ethylenedioxyphenyl)-5-fluoro-N2-[3-(N-piperazino)carbonylmethyleneoxyphenyl]-2,4-pyrimidinediamine Hydrogen Chloride Salt] | > 10
3 | CN(CCO)C(=O)c1cc2cc(Nc3ncc(F)c(Nc4cccc(O)c4)n3)ccc2o1 [R926725, 5-Fluoro-N4-(3-hydroxyphenyl)-N2-[2-(N-methyl-N-2-hydroxyethyl)carbonylbenzofuran-5-yl)-2,4-pyrimidinediamine] | > 10
4 | Cc1cc(Nc2nc(Nc3cccc(OCCN4CCOCC4)c3)ncc2F)cc(C)c1O [R940256, N4-(3,5-Dimethyl-4-hydroxyphenyl)-5-fluoro-N2-[3-[2-(N-morpholino)ethyloxy]phenyl]-2,4-pyrimidinediamine Hydrogen Chloride Salt] | > 10
5 | CNC(=O)COc1cccc(Nc2ncc(F)c(Nc3ccc(OC)c(Cl)c3)n2)c1 [R926891, N4-(3-Chloro-4-methoxyphenyl)-5-fluoro-N2-[3-[(N-methylamino)carbonylmethyleneoxy]phenyl]-2,4-pyrimidinediamine] | > 10
6 | Cc1cc(Nc2nc(Nc3cccc(OCCN4CCOCC4)c3)ncc2F)cc(C)c1O [R940255, N4-(3,5-Dimethyl-4-hydroxyphenyl)-5-fluoro-N2-[3-[2-(N-morpholino)ethyleneoxy]phenyl]-2,4-pyrimidinediamine] | > 10
7 | O=C(COc1cccc(Nc2ncc(F)c(Nc3ccc4c(c3)OCCO4)n2)c1)NC1CC1 [R926848, N2-[3-(N-Cyclopropylamino)carbonylmethyleneoxyphenyl]-N4-(3,4-ethylenedioxyphenyl)-5-fluoro-2,4-pyrimidinediamine] | 10
8 | CNC(=O)COc1cccc(Nc2ncc(F)c(Nc3ccc(C)c(O)c3)n2)c1 [R926753, 5-Fluoro-N4-(3-hydroxy-4-methylphenyl)-N2-[3-[(N-methylamino)carbonylmethyleneoxy]phenyl]-2,4-pyrimidinediamine] | > 10
9 | CCOC(=O)COc1ccc(Nc2nc(Nc3ccc(OCC(=O)OCC)cc3)c(NC(=O)NC(=O)CCl)c(C(=O)OCC)n2)cc1 [R926589, N2,N4-Bis(4-ethoxycarbonylmethyleneoxyphenyl)-6-ethoxycarbonyl-5-(chloroacetylaminocarbonylamino)-2,4-pyrimidinediamine] | 10
10 | Cc1ccc(Nc2nc(Cl)ncc2F)cc1CNC(=O)OC(C)(C)C [Compound R926924] | > 10
11 | CNC(=O)COc1cccc(Nc2ncc(F)c(Nc3ccc4c(c3)NCCO4)n2)c1 [R920395, N4-(1,4-Benzoxazin-6-yl)-5-fluoro-N2-[3-(N-methylamino)carbonylmethyleneoxyphenyl]-2,4-pyrimidinediamine Hydrogen Chloride Salt] | > 10

Results, then the compound that gave them:

Row | IC50 [µM] | Compound
12 | > 10 | CNC(=O)COc1cccc(Nc2ncc(F)c(Nc3cccc(N(CCO)CCO)c3)n2)c1 [R950266, N4-(3-Bis(N-hydroxyethyl)aminophenyl)-5-fluoro-N2-[3-(N-methylamino)carbonylmethyleneoxyphenyl]-2,4-pyrimidinediamine]
13 | > 10 | CNC(=O)C1Cc2cc(Nc3ncc(F)c(Nc4cccc(OC(F)(F)F)c4)n3)ccc2O1 (racemic) [R927040, (±)-N2-[2,3-Dihydro-(N-methylamino)carbonylbenzofuran-5-yl]-5-fluoro-N4-(3-trifluoromethoxyphenyl)-2,4-pyrimidinediamine]
14 | > 10 | COC(=O)c1cc2cc(Nc3ncc(F)c(Nc4ccc5cnn(CCC(=O)O)c5c4)n3)ccc2o1 [R935296, N4-[1-(2-carboxyethyl)indazolne-6-yl]-5-fluoro-N2-(2-methoxycarbonylbenzofur-5-yl)-2,4-pyrimidinediamine]
15 | > 10 | COC(=O)c1ccc(Cn2cc3ccc(Nc4ncc(F)c(Nc5ccc6c(c5)OCCO6)n4)cc3n2)c(OC)c1 [R935336, N4-(3,4-Ethylenedioxyphenyl)-5-fluoro-N2-[2-(2-methoxy-4-carbomethoxybenzyl)indazoline-6-yl]-2,4-pyrimidinediamine]
16 | > 10 | CSc1nc2ccc(Nc3ncc(F)c(Nc4cccc(O)c4)n3)cc2s1 [R950212, 5-Fluoro-N4-(3-hydroxyphenyl)-N2-[2-(methylthio)-1,3-benzothiaz-6-yl)-2,4-pyrimidinediamine]
17 | > 10 | CNC(=O)C(C)(Oc1cccc(Nc2ncc(F)c(Nc3ccc(OC(C)C)cc3)n2)c1)C(=O)NC [R935196, N2-[3-(1-Bis(N-methylaminocarbonyl)ethoxy)phenyl]-5-fluoro-N4-(4-isopropoxyphenyl)-2,4-pyrimidineamine]
18 | > 10 | CCOc1ccc(Nc2nc(Nc3cccc(OCC(=O)NC)c3)ncc2F)cc1S(=O)(=O)O [R950389, N4-(4-Ethoxy-3-hydroxysulfonylphenyl)-5-fluoro-N2-[3-(N-methylamino)carbonylmethyleneoxyphenyl]-2,4-pyrimidinediamine]
19 | > 10 | CCOC(=O)CCn1ncc2cc(Nc3ncc(F)c(Nc4ccc(OC(F)(F)F)c(Cl)c4)n3)ccc21 [R935354, N4-(3-Chloro-4-trifluoromethoxy-phenyl)-N2-[1-(2-ethoxycarbonylethyl)indazoline-5-yl]-5-fluoro-2,4-pyrimidinediamine]
20 | > 10 | CNC(=O)COc1cccc(Nc2ncc(F)c(Nc3cccc([N+](=O)[O-])c3)n2)c1 [R950261, N4-(3-Nitrophenyl)-5-fluoro-N2-[3-(N-methylamino)carbonylmethyleneoxyphenyl]-2,4-pyrimidinediamine]

same assay, conditions: Homo sapiens, Mast cell

Row | Compound | IC50 [µM]
21 | CNC(=O)CNc1cccc(Nc2ncc(F)c(Nc3cccc(O)c3)n2)c1 [R950218] | > 10

tested on: cultured human mast cells (CHMC); test: CHMC low cell density IgE activation: tryptase assay; format: cell-based; conditions: Homo sapiens, Mast cell, anti-IgE
Protocol: Pellet CHMC cells (980 rpm, 10 min) and resuspend in pre-warmed MT. Add 65 ul of cells to each 96-well plate. Depending on the degranulation activity for each particular CHMC donor, load 1000-1500 cells/well. Mix four times followed by a 1 hr incubation at 37° C. […] Stimulate cells by adding 25 ul of 6× anti-IgE solution to the appropriate plates. Add 25 ul MT to un-stimulated control wells. Mix twice following addition of the anti-IgE. Incubate at 37° C. for 30 minutes. […] Spin plates at 1000 rpm for 10 min to pellet cells. Transfer 25 ul of supernatant to a 96-well black bottom plate and add 100 ul of freshly diluted tryptase substrate solution to each well. Incubate plates at room temperature for 30 min.

Row | Compound | IC50 [µM]
22 | O=C(O)Cc1cccc(Nc2ncc(F)c(Nc3cccc(CC(=O)O)c3)n2)c1 [R935117] | > 10

same assay, conditions: anti-IgE

Row | Compound | IC50 [µM]
23 | CCOC(=O)C(C)(C)Oc1cccc(Nc2ncc(F)c(Nc3ccc(C)c(O)c3)n2)c1 [R926908, N2-[3-(Ethoxycarbonyl-1,1-dimethylmethyleneoxy)phenyl]-5-fluoro-N4-(3-hydroxy-4-methylphenyl)-2,4-pyrimidinediamine] | 0.585
24 | O=C(O)COc1ccc(Nc2ncc(F)c(Nc3ccc4c(c3)OCCO4)n2)cc1 [R926238, N2-(4-Carboxymethyleneoxyphenyl)-N4-(3,4-ethylenedioxyphenyl)-5-fluoro-2,4-pyrimidinediamine] | > 10
25 | CNC(=O)COc1cccc(Nc2ncc(F)c(Nc3ccc(C#N)c(C)c3)n2)c1 [R926851, N4-(4-Cyano-3-methylphenyl)-5-fluoro-N2-[3-(N-methylamino)carbonylmethyleneoxyphenyl]-2,4-pyrimidinediamine] | 0.446
26 | COc1cc(Nc2nc(Nc3cccc(O)c3)ncc2F)c(OC)cc1Cl [R926860, N4-(4-Chloro-2,5-dimethoxyphenyl)-5-fluoro-N2-(3-hydroxyphenyl)-2,4-primidinediamine] | 1.95
27 | Fc1ccc(Nc2nc(Cl)ncc2F)cc1F [Compound R926882] | > 10
28 | CNC(=O)COc1cccc(Nc2ncc(F)c(Nc3cccc(SC(F)(F)F)c3)n2)c1 [R926925, 5-Fluoro-N2-[3-[(N-methylamino)carbonylmethyleneoxy]phenyl]-N4-(3-trifluoromethylthiophenyl)-2,4-pyrimidinediamine] | 0.307
29 | Oc1cccc(Nc2nc(Nc3ccc4oc(CN5CCNCC5)cc4c3)ncc2F)c1 [R926770, 5-Fluoro-N4-(3-hydroxyphenyl)-N2-[2-(N-piperazinomethylene)benzofuran-5-yl]-2,4-pyrimidinediamine] | 0.583

Further lines, results first:

Row | IC50 [µM] | Compound
30 | > 10 | COc1cc(C(=O)NS(=O)(=O)c2ccccc2C)ccc1Cn1ncc2ccc(Nc3ncc(F)c(Nc4cccc(O)c4)n3)cc21 [R935324, 5-Fluoro-N4-(3-hydroxyphenyl)-N2-[1-[2-methoxy-4-(o-toluylsulfonamidocarboxy)benzyl]indazoline-6-yl]-2,4-pyrimidinediamine]
31 | 0.326 | COC(=O)C1Cc2cc(Nc3ncc(F)c(Nc4ccc(OCCO)nc4)n3)ccc2O1 (racemic) [R927025, (±)-N2-(2,3-Dihydro-2-methoxycarbonylbenzofuran-5-yl)-5-fluoro-N4-[2-(2-hydroxyethyleneoxy)pyridin-5-yl]-5-fluoro-2,4-pyrimidinediamine]
32 | 0.139 | CC(C)Oc1ccc(Nc2nc(Nc3ccc4c(cnn4CCCO)c3)ncc2F)cc1 [R935307, 5-Fluoro-N2-[1-(3-hydroxypropyl)indazoline-5-yl]-N4-(4-isopropoxyphenyl)-2,4-pyrimidinediamine]
33 | 1.06 | Oc1cccc(Nc2ncc(F)c(Nc3ccc4[nH]ncc4c3)n2)c1 [R935268, 5-Fluoro-N2-(3-hydroxyphenyl)-N4-(indazoline-5-yl)-2,4-pyrimidinediamine]
34 | 1.72 | COC(=O)COc1cccc(Nc2ncc(F)c(Nc3ccc4[nH]ncc4c3)n2)c1 [R935269, 5-Fluoro-N4-(indazoline-5-yl)-N2-[3-(methoxycarbonylmethyleneoxy)phenyl]-2,4-pyrimidinediamine]
35 | > 10 | COc1cc(C(=O)NS(=O)(=O)c2ccccc2C)ccc1Cn1ncc2ccc(Nc3ncc(F)c(Nc4ccc5c(c4)OCCO5)n3)cc21 [R935323, N4-(3,4-Ethylenedioxyphenyl)-5-fluoro-N4-[1-[2-methoxy-4-(o-toluylsulfonamidocarboxy)benzyl]indazoline-6-yl]-2,4-pyrimidinediamine]
